This note sets out measurements from publication PMC8682738, “Constrained peptides mimic a viral suppressor of RNA silencing” (Nucleic Acids Research, 2021).

For one data set, the target named is proteinase K (Parengyodontium album, UniProt P06873). The data set can be described thus: Protease stability assay. The class given is in vitro ADME. The settings on record: proteinase K 10 μg·ml^−1, fluorescein-labeled peptide 50 μM, 10 mM Tris pH 8.0, 150 mM NaCl, room temperature, HPLC absorbance 210 nm, exponential decay fit. The protocol:
Protease stability assays were performed in analogy to a previously published protocol ([47]). Stocks of fluorescein-labeled peptides were prepared to a concentration of 55.5 μM in assay buffer (10 mM Tris, pH 8.0, 150 mM NaCl) and separately stocks of proteinase K also in assay buffer (c = 100 μg·ml^−1). To begin each experiment, peptide and proteinase K stocks were mixed (final concentrations: c = 10 μg·ml^−1 proteinase K, c = 50 μM fluorescein-labeled peptide; final volume = 500 μl) and incubated at room temperature. At each time point, 50 μl of the reaction mixture was quenched by adding 100 μl of TFA/ACN/H2O (v/v/v, 1:49:49) and subsequently incubated for 2 min on ice. Following centrifugation (15 min, 13200 rpm, 4°C), samples (45 μl) were monitored by analytical HPLC using a linear gradient of 10–60% HPLC solvent B over 20 min. The amount of remaining peptide was quantified via absorbance at λ = 210 nm (intact peptide (%)) and plotted against time (t) (h). Half-life (t1/2) was calculated by fitting the data to an exponential decay using the software Prism 5.0 (GraphPad).

A short description of data set [1]: CD spectroscopy, secondary structure content. In kind it is physicochemical. To be noted: fluorescein-labeled peptide 75 μM, 10 mM sodium phosphate pH 7.4, CDNN/PEPFIT; for Helix (α-helicity): unbound. The protocol: Spectra of fluorescein-labeled peptides were recorded with a J-715 circular dichroism spectrometer (Jasco) using a stoppered quartz cuvette (1 mm; Hellma). Peptide samples (c = 75 μM) were prepared in buffer: 10 mM disodium hydrogen phosphate, pH 7.4. For each sample, 10 CD spectra were measured between λ = 190 and 260 nm with continuous scan mode (10 mdeg sensitivity, 1.0 nm resolution, 1.0 nm bandwidth, 2 s integration time, 50 nm/min scan rate). Obtained spectra were averaged, then subtracted from a reference buffer spectrum and smoothed using a fast Fourier transform filter (FFT filter). The mean residue ellipticity (Θ) (deg·cm^2·dmol^−1·10^4) was calculated using Formula (2) and plotted against wavelength (λ) (nm). The ratio of secondary structure elements was calculated with CDNN using the PEPFIT set of reference spectra for secondary structure determination ([45],[46]):(2) where [Θ]m = mean molar ellipticity per peptide bond (degree·cm^2·dmol^−1·10^4), Θ = measured ellipticity (degree), d = optical path length (cm), cg = mass concentration (g·l^−1), MRW = mean residue weight, M = molar mass of the peptide (g·mol^−1) and N = number of peptide bonds.

Positions of bridges follow the written chain, without caps; N, C: chain ends. Non-standard residues stand in square brackets, D forms with d. Residues, ends and D or L forms follow the SMILES beside them. *: point of attachment. FITC = O=C1OC2(c3ccc(O)cc3Oc3cc(O)ccc32)c2ccc(NC(=S)*)cc21; S5 = C=CCCC[C@](C)(N)C(=O)O; AEEA = NCCOCCOCC(=O)O

Sequence of proteinase K (P06873 106-384): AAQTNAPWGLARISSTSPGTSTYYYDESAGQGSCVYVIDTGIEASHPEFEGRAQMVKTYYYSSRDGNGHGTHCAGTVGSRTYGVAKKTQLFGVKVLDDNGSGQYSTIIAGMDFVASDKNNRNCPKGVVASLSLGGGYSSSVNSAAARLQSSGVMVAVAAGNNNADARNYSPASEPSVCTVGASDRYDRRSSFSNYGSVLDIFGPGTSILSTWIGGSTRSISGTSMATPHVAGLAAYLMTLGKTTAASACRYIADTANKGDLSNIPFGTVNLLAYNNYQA

Consider `CC(C)C[C@@H]1NC(=O)[C@@](C)(NC(=O)[C@H](CO)NC(=O)[C@H](CCCNC(=N)N)NC(=O)[C@H](CCCNC(=N)N)NC(=O)[C@H](CCC(N)=O)NC(=O)[C@H](CCC(=O)O)NC(=O)[C@H](CO)NC(=O)[C@@H]2CCCN2C(=O)[C@H](CO)NC(=O)[C@H](CCCCN)NC(=O)[C@H](Cc2c[nH]cn2)NC(=O)CNC(=O)[C@H](CCCNC(=N)N)NC(=O)[C@]2(C)CCCC=CCCC[C@](C)(NC(=O)[C@H](CCCCN)NC(=O)[C@H](Cc3c[nH]cn3)NC(=O)[C@H](CCCNC(=N)N)NC(=O)[C@H](CCCCN)NC(=O)[C@H](CCCNC(=N)N)NC(=O)[C@H](CCC(N)=O)NC(=O)[C@H](C)NC(=O)[C@H](CCC(N)=O)NC(=O)[C@H](CCCCN)NC(=O)[C@H](CCCCN)NC(=O)COCCOCCNC(=S)Nc3ccc4c(c3)C(=O)OC43c4ccc(O)cc4Oc4cc(O)ccc43)C(=O)N[C@@H](CC(N)=O)C(=O)N[C@@H](CCCNC(=N)N)C(=O)N[C@@H](CCCCN)C(=O)N2)CCCC=CCCC[C@@](C)(C(=O)N[C@@H](CCCNC(=N)N)C(N)=O)NC(=O)[C@H](Cc2c[nH]cn2)NC(=O)[C@H](Cc2c[nH]c3ccccc23)NC1=O` [C3] ({FITC-AEEA}-KKQAQRKRHK[S5]NRK[S5]RGHKSPSEQRRS[S5]LWH[S5]R-NH2; staple 11-15, 28-32), for which, at proteinase K, the “Half-life (t1/2)” value came out at 5.05 h. For the same compound, in data set [1], the Random coil came to 37.0%, the β-Sheet was determined as 4.3%, the β-Turn worked out at 6.2% and the “Helix (α-helicity)” value is reported as 59.3%.

In the case of `CC(C)C[C@@H]1NC(=O)[C@@](C)(NC(=O)[C@H](CO)NC(=O)[C@H](CCCNC(=N)N)NC(=O)[C@H](CCCNC(=N)N)NC(=O)[C@H](CCC(N)=O)NC(=O)[C@H](CCC(=O)O)NC(=O)[C@H](CO)NC(=O)[C@@H]2CCCN2C(=O)[C@H](CO)NC(=O)[C@H](CCCCN)NC(=O)[C@H](Cc2c[nH]cn2)NC(=O)CNC(=O)[C@H](CCCNC(=N)N)NC(=O)[C@H](CCC(=O)O)NC(=O)[C@H](CCCCN)NC(=O)[C@H](CCCNC(=N)N)NC(=O)[C@H](CC(N)=O)NC(=O)[C@]2(C)CCCC=CCCC[C@](C)(NC(=O)[C@H](CCCNC(=N)N)NC(=O)[C@H](CCC(N)=O)NC(=O)[C@H](C)NC(=O)[C@H](CCC(N)=O)NC(=O)[C@H](CCCCN)NC(=O)[C@H](CCCCN)NC(=O)COCCOCCNC(=S)Nc3ccc4c(c3)C(=O)OC43c4ccc(O)cc4Oc4cc(O)ccc43)C(=O)N[C@@H](CCCNC(=N)N)C(=O)N[C@@H](Cc3c[nH]cn3)C(=O)N[C@@H](CCCCN)C(=O)N2)CCCC=CCCC[C@@](C)(C(=O)N[C@@H](CCCNC(=N)N)C(N)=O)NC(=O)[C@H](Cc2c[nH]cn2)NC(=O)[C@H](Cc2c[nH]c3ccccc23)NC1=O` [C2] ({FITC-AEEA}-KKQAQR[S5]RHK[S5]NRKERGHKSPSEQRRS[S5]LWH[S5]R-NH2; staple 7-11, 28-32), the “Half-life (t1/2)” value at proteinase K turned out to be 7.33 h. Besides, in data set [1], the Random coil came out at 41.6%, the β-Sheet was 3.3%, the β-Turn amounted to 4.2% and the “Helix (α-helicity)” value was 61.8%.

Consider `CC(C)C[C@H](NC(=O)[C@H](CCCCN)NC(=O)[C@H](Cc1c[nH]cn1)NC(=O)[C@H](CCCNC(=N)N)NC(=O)[C@H](CCCCN)NC(=O)[C@H](CCCNC(=N)N)NC(=O)[C@H](CCC(N)=O)NC(=O)[C@H](C)NC(=O)[C@H](CCC(N)=O)NC(=O)[C@H](CCCCN)NC(=O)[C@H](CCCCN)NC(=O)COCCOCCNC(=S)Nc1ccc2c(c1)C(=O)OC21c2ccc(O)cc2Oc2cc(O)ccc21)C(=O)N[C@@H](CC(N)=O)C(=O)N[C@@H](CCCNC(=N)N)C(=O)N[C@@H](CCCCN)C(=O)N[C@@H](CCC(=O)O)C(=O)N[C@@H](CCCNC(=N)N)C(=O)NCC(=O)N[C@@H](Cc1c[nH]cn1)C(=O)N[C@@H](CCCCN)C(=O)N[C@@H](CO)C(=O)N1CCC[C@H]1C(=O)N[C@@H](CO)C(=O)N[C@@H](CCC(=O)O)C(=O)N[C@@H](CCC(N)=O)C(=O)N[C@@H](CCCNC(=N)N)C(=O)N[C@@H](CCCNC(=N)N)C(=O)N[C@@H](CO)C(=O)N[C@@]1(C)CCCC=CCCC[C@@](C)(C(=O)N[C@@H](CCCNC(=N)N)C(N)=O)NC(=O)[C@H](Cc2c[nH]cn2)NC(=O)[C@H](Cc2c[nH]c3ccccc23)NC(=O)[C@H](CC(C)C)NC1=O` [C] ({FITC-AEEA}-KKQAQRKRHKLNRKERGHKSPSEQRRS[S5]LWH[S5]R-NH2; staple 28-32), for which the “Half-life (t1/2)” value at proteinase K turned out to be 1.3 h. In data set [1], the Random coil came to 63.6%, the β-Sheet stood at 2.8%, the β-Turn was determined as 7.6% and the “Helix (α-helicity)” value came out at 28.4%.
